Measured values: ChEMBL document CHEMBL4390688, “Accelerating the discovery of DGAT1 inhibitors through the application of parallel medicinal chemistry (PMC)” (Bioorg Med Chem Lett, 2019)

Columns and labels:
[1] = target: T1, Sterol O-acyltransferase 1 (Homo sapiens, UniProt P35610)
T1 sequence (P35610 whole entry): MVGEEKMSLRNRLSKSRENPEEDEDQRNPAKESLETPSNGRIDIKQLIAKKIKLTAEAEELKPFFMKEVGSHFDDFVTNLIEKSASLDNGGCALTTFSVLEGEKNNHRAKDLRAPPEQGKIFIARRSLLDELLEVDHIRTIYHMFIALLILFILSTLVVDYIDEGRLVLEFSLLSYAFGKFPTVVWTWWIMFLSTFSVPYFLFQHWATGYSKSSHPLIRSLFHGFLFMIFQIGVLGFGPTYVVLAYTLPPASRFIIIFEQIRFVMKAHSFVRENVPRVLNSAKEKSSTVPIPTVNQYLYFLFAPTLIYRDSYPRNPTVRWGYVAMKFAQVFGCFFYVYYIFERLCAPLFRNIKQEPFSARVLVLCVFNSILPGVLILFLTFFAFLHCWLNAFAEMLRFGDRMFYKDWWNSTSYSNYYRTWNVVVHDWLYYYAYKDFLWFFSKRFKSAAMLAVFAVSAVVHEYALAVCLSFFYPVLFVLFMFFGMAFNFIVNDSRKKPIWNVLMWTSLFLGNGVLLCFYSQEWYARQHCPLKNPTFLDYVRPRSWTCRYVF
Description: Inhibition of human ACAT1

[2] = tested on: Mus musculus; assay: Reduction in lipid excursion in mouse at 10 mg/kg, po QD measured at 18 hrs post dose by lipid tolerance test relative to control; type: functional; design: scale not given: the % may be the effect or the level left
[3] = target: T2, Diacylglycerol O-acyltransferase 1 (Homo sapiens, UniProt O75907)
T2 sequence (O75907 whole entry): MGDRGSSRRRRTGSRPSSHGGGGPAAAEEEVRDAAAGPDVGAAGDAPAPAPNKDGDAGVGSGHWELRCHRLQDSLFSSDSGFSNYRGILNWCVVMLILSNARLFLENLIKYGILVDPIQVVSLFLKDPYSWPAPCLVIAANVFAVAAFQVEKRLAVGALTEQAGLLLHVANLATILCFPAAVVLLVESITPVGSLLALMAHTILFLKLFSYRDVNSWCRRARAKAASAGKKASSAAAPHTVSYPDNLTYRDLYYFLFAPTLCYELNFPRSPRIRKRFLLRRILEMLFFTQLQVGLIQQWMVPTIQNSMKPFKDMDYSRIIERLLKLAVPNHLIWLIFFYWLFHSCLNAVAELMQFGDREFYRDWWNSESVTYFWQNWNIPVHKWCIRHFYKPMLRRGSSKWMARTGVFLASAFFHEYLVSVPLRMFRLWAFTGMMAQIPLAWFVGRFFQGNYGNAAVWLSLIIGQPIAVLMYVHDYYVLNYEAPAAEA
Description: Inhibition of human DGAT1

[4] = target: Voltage-gated inwardly rectifying potassium channel KCNH2 (Homo sapiens, UniProt Q12809); assay: Inhibition of human ERG
Sequence of Voltage-gated inwardly rectifying potassium channel KCNH2 (Q12809 whole entry): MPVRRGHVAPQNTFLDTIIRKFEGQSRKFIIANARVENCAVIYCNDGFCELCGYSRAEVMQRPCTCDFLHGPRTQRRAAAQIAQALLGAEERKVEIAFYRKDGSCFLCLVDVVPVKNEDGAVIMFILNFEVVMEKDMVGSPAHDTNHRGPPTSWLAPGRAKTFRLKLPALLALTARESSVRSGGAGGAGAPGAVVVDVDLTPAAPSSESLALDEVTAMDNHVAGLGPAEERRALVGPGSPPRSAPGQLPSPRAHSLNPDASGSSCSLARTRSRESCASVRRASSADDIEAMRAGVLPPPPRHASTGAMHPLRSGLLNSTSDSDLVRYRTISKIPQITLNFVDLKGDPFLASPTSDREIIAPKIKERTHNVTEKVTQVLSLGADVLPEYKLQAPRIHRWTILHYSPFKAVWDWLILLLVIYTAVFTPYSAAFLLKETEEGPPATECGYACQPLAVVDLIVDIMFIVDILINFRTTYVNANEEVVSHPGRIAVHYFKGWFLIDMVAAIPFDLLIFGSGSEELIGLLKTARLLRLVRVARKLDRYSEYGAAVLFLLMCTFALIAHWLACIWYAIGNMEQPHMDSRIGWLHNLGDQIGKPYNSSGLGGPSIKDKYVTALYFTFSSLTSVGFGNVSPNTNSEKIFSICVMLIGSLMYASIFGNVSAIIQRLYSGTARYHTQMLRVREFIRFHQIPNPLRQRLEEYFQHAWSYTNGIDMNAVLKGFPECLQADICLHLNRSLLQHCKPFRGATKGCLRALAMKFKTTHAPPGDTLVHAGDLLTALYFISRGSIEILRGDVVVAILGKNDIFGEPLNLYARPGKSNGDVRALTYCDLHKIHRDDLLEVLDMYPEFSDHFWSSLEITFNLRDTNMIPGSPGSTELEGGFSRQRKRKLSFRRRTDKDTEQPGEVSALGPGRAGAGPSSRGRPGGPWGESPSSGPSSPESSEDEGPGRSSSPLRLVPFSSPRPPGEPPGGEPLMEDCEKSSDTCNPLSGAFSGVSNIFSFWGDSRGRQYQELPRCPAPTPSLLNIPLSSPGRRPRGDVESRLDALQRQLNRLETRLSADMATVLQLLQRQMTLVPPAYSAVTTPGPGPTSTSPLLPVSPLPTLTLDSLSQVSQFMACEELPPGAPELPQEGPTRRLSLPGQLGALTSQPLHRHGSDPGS

[5] = Distribution coefficient, log D of compound; type: physicochemical; details: octanol/water
[6] = target: T3, Diacylglycerol O-acyltransferase 1 (Mus musculus, UniProt Q9Z2A7)
T3 sequence (Q9Z2A7 whole entry): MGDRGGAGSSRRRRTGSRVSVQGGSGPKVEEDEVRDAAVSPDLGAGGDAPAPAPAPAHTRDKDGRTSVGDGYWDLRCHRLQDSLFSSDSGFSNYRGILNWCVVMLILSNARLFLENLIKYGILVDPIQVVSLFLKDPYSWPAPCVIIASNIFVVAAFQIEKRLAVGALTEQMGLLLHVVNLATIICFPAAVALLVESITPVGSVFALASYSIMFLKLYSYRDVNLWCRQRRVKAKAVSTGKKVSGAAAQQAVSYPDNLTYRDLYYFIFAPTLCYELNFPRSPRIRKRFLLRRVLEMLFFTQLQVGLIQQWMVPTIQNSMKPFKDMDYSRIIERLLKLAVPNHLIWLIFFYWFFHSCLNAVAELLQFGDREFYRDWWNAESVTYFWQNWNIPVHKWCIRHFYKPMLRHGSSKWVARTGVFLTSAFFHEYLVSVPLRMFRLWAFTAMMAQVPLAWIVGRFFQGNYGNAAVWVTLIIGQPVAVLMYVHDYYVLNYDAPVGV
Description: Inhibition of mouse DGAT1

[7] = species: Homo sapiens; assay: Ratio of IC50 for human ACAT1 to IC50 for human DGAT1
[8] = target: T4, Adenosine receptor A2a (Homo sapiens, UniProt P29274); assay: Activity against human A2AR assessed as inhibition of cAMP accumulation by cAMP functional assay
T4 sequence (P29274 whole entry): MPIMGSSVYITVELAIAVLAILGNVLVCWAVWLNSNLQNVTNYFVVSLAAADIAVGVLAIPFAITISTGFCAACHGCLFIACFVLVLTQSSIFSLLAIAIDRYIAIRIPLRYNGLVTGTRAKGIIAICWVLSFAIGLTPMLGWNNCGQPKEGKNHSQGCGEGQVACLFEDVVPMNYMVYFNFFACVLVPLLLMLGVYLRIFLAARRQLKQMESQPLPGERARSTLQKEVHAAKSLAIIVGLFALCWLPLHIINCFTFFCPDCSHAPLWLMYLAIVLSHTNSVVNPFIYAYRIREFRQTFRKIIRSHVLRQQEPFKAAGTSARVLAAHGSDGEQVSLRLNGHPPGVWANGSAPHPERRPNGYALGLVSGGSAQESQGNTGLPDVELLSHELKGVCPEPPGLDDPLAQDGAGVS

[9] = tested on: Mus musculus; assay: Reduction in lipid excursion in mouse at 3 mg/kg, po administered as single dose measured after 18 hrs by lipid tolerance test relative to control; type: functional; design: scale not given: the % may be the effect or the level left
[10] = Mutagenicity in Salmonella typhimurium TA98 up to 30 to 5000 ug/plate by Ames test; type: toxicity; details: salmonella enterica subsp. enterica serovar typhimurium
[11] = Half life in Sprague-Dawley rat at 1 mg/kg, iv or 2 mg/kg, po; type: ADME, organism-based; details: in vivo
[12] = Cmax in Beagle dog at 1 mg/kg, iv or 2 mg/kg, po; type: ADME, organism-based, Canis lupus familiaris; details: in vivo
[13] = Half life in Beagle dog at 1 mg/kg, iv or 2 mg/kg, po; type: ADME, organism-based, Canis lupus familiaris; details: in vivo
[14] = Tmax in Sprague-Dawley rat at 1 mg/kg, iv or 2 mg/kg, po; type: ADME, organism-based; details: in vivo
[15] = Oral bioavailability in Sprague-Dawley rat at 2 mg/kg; type: ADME, organism-based; details: in vivo
[16] = Oral bioavailability in Beagle dog at 2 mg/kg; type: ADME, organism-based, Canis lupus familiaris; details: in vivo
[17] = Clearance in Beagle dog at 1 mg/kg, iv or 2 mg/kg, po; type: ADME, organism-based, Canis lupus familiaris; details: in vivo
[18] = Volume of distribution at steady state in Sprague-Dawley rat at 1 mg/kg, iv or 2 mg/kg, po; type: ADME, organism-based; details: in vivo, read-out: Vdss
[19] = Dose normalized AUC in Sprague-Dawley rat at 1 mg/kg, iv or 2 mg/kg, po; type: ADME, organism-based; details: in vivo
[20] = Mutagenicity in Salmonella typhimurium […] up to 30 to 5000 ug/plate by Ames test; type: toxicity; details: salmonella enterica subsp. enterica serovar typhimurium
[21] = Dose normalized AUC in Beagle dog at 1 mg/kg, iv or 2 mg/kg, po; type: ADME, organism-based, Canis lupus familiaris; details: in vivo
[22] = tested on: Canis familiaris; assay: Reduction in lipid excursion in dog at 1 mg/kg, po measured by lipid tolerance test relative to control; type: functional, Canis lupus familiaris; design: scale not given: the % may be the effect or the level left
[23] = Mutagenicity in Salmonella typhimurium TA100 up to 30 to 5000 ug/plate by Ames test; type: toxicity; details: salmonella enterica subsp. enterica serovar typhimurium
[24] = Tmax in Beagle dog at 1 mg/kg, iv or 2 mg/kg, po; type: ADME, organism-based, Canis lupus familiaris; details: in vivo
[25] = Cmax in Sprague-Dawley rat at 1 mg/kg, iv or 2 mg/kg, po; type: ADME, organism-based; details: in vivo
[26] = Volume of distribution at steady state in Beagle dog at 1 mg/kg, iv or 2 mg/kg, po; type: ADME, organism-based, Canis lupus familiaris; details: in vivo, read-out: Vdss
[27] = Clearance in Sprague-Dawley rat at 1 mg/kg, iv and 2 mg/kg, po; type: ADME, organism-based; details: in vivo
[28] = Mutagenicity in Salmonella typhimurium […] by Ames test; type: toxicity; details: salmonella enterica subsp. enterica serovar typhimurium
[29] = Mutagenicity in Salmonella typhimurium TA100 by Ames test; type: toxicity; details: salmonella enterica subsp. enterica serovar typhimurium
[30] = Mutagenicity in Salmonella typhimurium TA98 by Ames test; type: toxicity; details: salmonella enterica subsp. enterica serovar typhimurium
[31] = target: T4, Adenosine receptor A2a; assay: Activity at human Adenosine A2A receptor; type: ADME
[32] = Solubility of the compound at pH 7; type: physicochemical; details: buffer

IC50 [1] [µM] | IC50 [3] [µM] | IC50 [6] [µM] | IC50 [8] [µM] | Compound | Ki [4] [µM] | Activity [9] [%] | also measured
> 10 | 0.008 | 0.0214 | 0.91 | O=C(O)C[C@H]1CC[C@H](OC2CCN(c3ccc(-c4nc5c(F)cccc5[nH]4)cn3)CC2)CC1 | 10.7 | 92 | –
> 10 | 0.0065 | 0.046 | 3.48 | O=C(O)C[C@H]1CC[C@H](OC2CCN(c3ccc(-c4nc5cc(F)c(F)cc5[nH]4)cn3)CC2)CC1 | 40.7 | 84 | Activity [10]: Non-Toxic; half-life [11]: 1 h; Cmax [12]: 2400 nM; half-life [13]: 3.2 h; Tmax [14]: 1 h; bioavailability [15]: 17%; bioavailability [16]: 40%; clearance [17]: 3.4 mL/min/kg; Vd [18]: 1.08 L/kg; AUC/dose [19]: 0.3 µM·h/mg/kg; Activity [20]: Non-Toxic; AUC/dose [21]: 4.1 µM·h/mg/kg; Activity [22]: 100%; Activity [23]: Non-Toxic; Tmax [24]: 0.5 h; Cmax [25]: 230 nM; Vd [26]: 0.81 L/kg; clearance [27]: 17 mL/min/kg
> 10 | 0.0152 | 0.0421 | > 10 | O=C(O)C[C@H]1CC[C@H](OC2CCN(c3ccc(-c4nc5ccccc5[nH]4)cn3)CC2)CC1 | 25.7 | 85 | Activity [28]: Toxic; Activity [29]: Toxic; Activity [30]: Toxic
> 10 | 0.0031 | 0.022 | 0.68 | O=C(O)C[C@H]1CC[C@H](OC2CCN(c3ccc(-c4nc5cc(Cl)ccc5[nH]4)cn3)CC2)CC1 | 4.5 | – | –
> 10 | 0.0041 | 0.011 | 0.52 | O=C(O)C[C@H]1CC[C@H](OC2CCN(c3ccc(-c4nc5c(F)cc(F)cc5[nH]4)cn3)CC2)CC1 | 4.1 | 65 | –
> 10 | 0.002 | 0.0046 | 1.8 | O=C(O)C[C@H]1CC[C@H](OC2CCN(c3ccc(-c4nc5cc(C(F)(F)F)ccc5[nH]4)cn3)CC2)CC1 | 4.9 | 57 | –

More lines, now with the values behind:

Compound | IC50 [1] [µM] | IC50 [3] [µM] | IC50 [6] [µM] | IC50 [8] [µM] | Ki [4] [µM] | Activity [9] [%] | also measured
CC1(C(=O)O)CCN(c2ccc(-c3ccc(-c4nc5cc(Cl)ccc5[nH]4)cn3)cn2)CC1 | > 10 | 0.0025 | 0.02 | – | 4.8 | – | Activity [2]: 96%; logD [5]: 1.45; Ratio IC50 [7]: > 4000
COc1ccc2[nH]c(-c3ccc(-c4ccc(O[C@H]5CC[C@@H](CC(=O)O)CC5)nc4)nc3)nc2n1 | > 2 | 0.0116 | 0.0098 | 1.2 | 37.7 | 96 | Activity [31]: Active
O=C(O)c1ccc(Oc2ccc(-c3ccc(-c4nc5cc(Cl)ccc5[nH]4)cn3)cn2)cc1 | 1.94 | 0.0013 | 0.0044 | – | 1.36 | – | solubility [32]: < 1 µM; logD [5]: 1.49
O=C(O)C[C@H]1CC[C@@H](Oc2ccc(-c3ccc(-c4nc5ccccc5[nH]4)cn3)cn2)CC1 | > 2 | 0.0052 | 0.0052 | 0.45 | 26.9 | 92 | Activity [31]: Active
Oc1ccc(-c2ccc(-c3nc4cc(C(F)(F)F)ccc4[nH]3)cc2)cn1 | 3.78 | 0.0064 | – | – | 2.25 | – | Ratio IC50 [7]: > 500
N#Cc1ccc2[nH]c(-c3ccc(-c4ccc(O[C@H]5CC[C@@H](CC(=O)O)CC5)nc4)nc3)nc2c1 | > 10 | 0.0036 | 0.0178 | 0.43 | 2.7 | 63 | –
O=C(O)C[C@H]1CC[C@@H](Oc2ccc(-c3ccc(-c4nc5cc(C(F)(F)F)cnc5[nH]4)cn3)cn2)CC1 | > 2 | 0.007 | 0.0095 | 0.97 | 23.4 | 92 | Activity [31]: Active
O=C(O)C[C@H]1CC[C@@H](Oc2ccc(-c3ccc(-c4nc5cc(F)ccc5[nH]4)cn3)cn2)CC1 | > 2 | 0.0024 | 0.0032 | 0.42 | 8.2 | 109 | –
